We go through 13 compounds from ChEMBL document CHEMBL6177929, “Synthesis and screening of novel 2,4-bis substituted quinazolines as tubulin polymerization promoters and antiproliferative agents” (RSC Med Chem, 2025).

The subject of series [1] is SH-SY5Y. The series can be described thus: Antiproliferative activity against human SH-SY5Y cells assessed as reduction in cell viability incubated for 48 hrs by MTT assay. The format is functional, cell-based. For orientation: Tetrazolium dyes change colour on reduction, which living cells bring about.
In another series the test system is MCF7. Nature of the series: Antiproliferative activity against human MCF7 cells assessed as reduction in cell viability incubated for 48 hrs by MTT assay. The series is classed as functional, cell-based. Conditions: MCF7, 48 h.
For a further series, the system named is HCT-116. The series can be described thus: Antiproliferative activity against human HCT-116 cells assessed as reduction in cell viability incubated for 48 hrs by MTT assay. The series is classed as functional, cell-based. Conditions: HCT-116, 48 h.
Series [2] concerns SH-SY5Y. The series can be described thus: Induction of cell cycle arrest in human SH-SY5Y cells assessed as accumulation of cells at S phase at 5 uM incubated for 48 hrs by LSRFortessa cell analyzer (reference value: 16.2%). The series is classed as functional.
Series [3] has as its system SH-SY5Y. The series can be described thus: Induction of apoptosis in human SH-SY5Y cells assessed as early apoptotic cells at 5 uM incubated for 48 hrs by Annexin V-FITC/PI staining based flow cytometry analysis (reference value: 2.0%). The format is functional. A general note: In flow cytometry, cells or beads pass a laser one at a time.
Series [4] relates to SH-SY5Y. Nature of the series: Induction of cell cycle arrest in human SH-SY5Y cells assessed as accumulation of cells at G2/M phase at 5 uM incubated for 48 hrs by LSRFortessa cell analyzer (reference value: 28.4%). The format is functional.
For series [5], the system named is SH-SY5Y. The series can be described thus: Induction of cell cycle arrest in human SH-SY5Y cells assessed as accumulation of cells at G1/G0 phase at 5 uM incubated for 48 hrs by LSRFortessa cell analyzer (reference value: 50.1%). The format is functional.
The test system of a further series is HEK-293T. Nature of the series: Cytotoxicity against human HEK293T cells at 25 uM incubated for 48 hrs by MTT assay. The series is classed as toxicity, cell-based.
Series [6] deals with SH-SY5Y. The series can be described thus: Induction of apoptosis in human SH-SY5Y cells assessed as necrotic cells at 5 uM incubated for 48 hrs by Annexin V-FITC/PI staining based flow cytometry analysis (reference value: 0.7%). The format is functional.
Series [7] has as its system SH-SY5Y. The series can be described thus: Induction of apoptosis in human SH-SY5Y cells assessed as late apoptotic cells at 5 uM incubated for 48 hrs by Annexin V-FITC/PI staining based flow cytometry analysis (reference value: 3.0%). The format is functional.
Series [8] has as its system SH-SY5Y. The series can be described thus: Induction of mitochondrial membrane potential in human SH-SY5Y cells assessed as mitochondria depolarization at 5 uM incubated for 48 hrs by synergy H1 microplate reader analysis. The format is functional, cell-based.
The subject of series [9] is SH-SY5Y. The series can be described thus: Induction of apoptosis in human SH-SY5Y cells assessed as viable cells at 5 uM incubated for 48 hrs by Annexin V-FITC/PI staining based flow cytometry analysis (reference value: 91.3%). The format is functional. Conditions: read-out: Activity.
Series [10] has as its target T1, Tubulin (Homo sapiens) (UniProt P68371+Q9H4B7+P0DPH7+P68366+Q13509+Q71U36+P04350+Q3ZCM7+P07437+P68363+Q9BQE3+Q6PEY2+Q13885+Q9BVA1+Q9BUF5). The series can be described thus: Inhibition of tubulin polymerization (unknown origin) at 1 uM incubated for 60 mins measured every 1 mins by spectrophotometric analysis. The series is classed as protein-complex assay.
For series [11], the target named is T1, Tubulin (Homo sapiens). Nature of the series: Inhibition of tubulin polymerization (unknown origin) at 5 uM incubated for 60 mins measured every 1 mins by spectrophotometric analysis. The format is protein-complex assay.

The structures appear in SMILES notation. Active and inactive are the calls of the source. The rule behind the calls is not given here.

For the compound `CN1CCN(c2nc(N3CCN(C)CC3)c3ccccc3n2)CC1`, the IC50 (as a rule, the concentration needed to halve the response being measured) with SH-SY5Y [1] was 23.8 µM; in the series on MCF7, greater than 25 µM; in the series on HCT-116, 20.7 µM.

With `c1ccc(CN2CCN(c3nc(N4CCN(Cc5ccccc5)CC4)c4ccccc4n3)CC2)cc1`, the IC50 in the series with SH-SY5Y [1] is greater than 25 µM; with MCF7, 21.8 µM; with HCT-116, greater than 25 µM.

In the case of `c1ccc2c(-n3ccnc3)nc(-n3ccnc3)nc2c1`, the figures for the IC50 with SH-SY5Y [1], in the series on MCF7 and in the series on HCT-116 were 15.7 µM, 11.5 µM and 9.43 µM, respectively.

For the compound `COc1cc2c(N3CCN(C)CC3)nc(N3CCN(C)CC3)nc2c(OC)c1OC`, the IC50 with SH-SY5Y [1] was greater than 25 µM; in the series on MCF7, 24.1 µM; in the series on HCT-116, 21.3 µM.

With `COc1cc2c(-n3nnc4ccccc43)nc(-n3nnc4ccccc43)nc2c(OC)c1OC`, the half-inhibitory concentration (IC50) in the series on SH-SY5Y [1] amounted to 8.14 µM; in the series on MCF7, 3.45 µM; with HCT-116 it was 7.25 µM. Further, the Activity in the series with SH-SY5Y [2] was 7.7%; with SH-SY5Y [3], 10.3%; with SH-SY5Y [4], 8.4%; in the series with SH-SY5Y [5], 78.9%; with HEK-293T, “Non-toxic”; with SH-SY5Y [6], 2%. Also, the Activity with SH-SY5Y [7] was determined as 51.8%. Besides, the result with SH-SY5Y [8] was inactive. The viability at 5 µM in the series on SH-SY5Y [9] was 35.9%.

For the compound `COc1cc2c(-n3ccnc3)nc(-n3ccnc3)nc2c(OC)c1OC`, the IC50 stood at 9.91 µM with SH-SY5Y [1], 4.25 µM in the series with MCF7 and 2.65 µM in the series with HCT-116. In addition, the Activity in the series with SH-SY5Y [2] is recorded as 6.8%; in the series with SH-SY5Y [3], 9.6%; with SH-SY5Y [4], 79%; in the series on SH-SY5Y [5], 11.3%; in the series with HEK-293T, “Non-toxic”; with SH-SY5Y [6], 6.8%. Besides, the Activity with SH-SY5Y [7] stood at 50.3%. For the same compound, at Tubulin (Homo sapiens) [10], the inhibition entry is “inactive”. The inhibition entry on Tubulin (Homo sapiens) [11] is “Active”. For the same compound, the outcome in the series on SH-SY5Y [8] was Active. In the series on SH-SY5Y [9], the viability at 5 µM was 33.3%.

On to `c1ccc(N2CCN(c3nc(N4CCN(c5ccccc5)CC4)c4ccccc4n3)CC2)cc1`, for which the IC50 in the series on SH-SY5Y [1] was greater than 25 µM; in the series on MCF7, 12.8 µM; in the series with HCT-116 it was 9.19 µM.

On to `COc1cc2c(-n3cnnc3)nc(-n3cnnc3)nc2c(OC)c1OC`, for which the IC50 is greater than 25 µM in the series on SH-SY5Y [1], 23.1 µM in the series on MCF7 and 13.8 µM in the series on HCT-116.

As to `COc1cc2c(N3CCOCC3)nc(N3CCOCC3)nc2c(OC)c1OC`, the IC50 with SH-SY5Y [1] was 15.9 µM; with MCF7, 18.8 µM; with HCT-116, greater than 25 µM.

On to `COc1cc2c(c(OC)c1OC)-c1ccc(OC)c(=O)cc1[C@@H](NC(C)=O)CC2` [COLCHICINE], for which the IC50 was 6.82 µM in the series with SH-SY5Y [1], 4.48 µM in the series with MCF7 and 1.65 µM in the series with HCT-116. Further, the Activity in the series with SH-SY5Y [2] is reported as 4.1%; with SH-SY5Y [3] it was 6.5%; with SH-SY5Y [4] it was 90%; in the series on SH-SY5Y [5] it was 5.1%; with SH-SY5Y [6], 3.9%; in the series on SH-SY5Y [7], 54.5%. Also, the viability at 5 µM with SH-SY5Y [9] is 35.1%.

Take `c1ccc2c(-n3cnnc3)nc(-n3cnnc3)nc2c1`: the values for the IC50 in the series on SH-SY5Y [1], in the series on MCF7 and with HCT-116 were 15.3 µM, 19 µM and 17.5 µM, respectively.

With `c1ccc2c(-n3nnc4ccccc43)nc(-n3nnc4ccccc43)nc2c1`, the figures for the IC50 with SH-SY5Y [1], with MCF7 and in the series on HCT-116 were 11 µM, 15.3 µM and greater than 25 µM, respectively.

With `c1ccc2c(N3CCOCC3)nc(N3CCOCC3)nc2c1`, the IC50 was 18.9 µM in the series on SH-SY5Y [1], 14.6 µM with MCF7 and greater than 25 µM with HCT-116.
